The values that follow are results of earlier work, collected in publication PMC11070408, “Bifunctional octadentate pseudopeptides as Zirconium-89 chelators for immuno-PET applications” (EJNMMI Radiopharmacy and Chemistry, 2024).

On the set-up of the series: method as in Sarbisheh and Salih [2020]. Particulars: ref Sarbisheh and Salih [2020].

Consider `CC(=O)N(O)CCCCCNC(=O)CCC(=O)N(O)CCCCCNC(=O)CCC(=O)N(O)CCCCCNC(=O)CCC(=O)NCC(CNC(=O)CCC(=O)NCCCCCN(O)C(=O)CCC(=O)NCCCCCN(O)C(=O)CCC(=O)NCCCCCN(O)C(C)=O)Cc1ccc([N+](=O)[O-])cc1` [DFO2], for which the solubility in water entry is “poor”.
